We go through 65 compounds from US20050090498A1, “3-Quinolin-2(1h)-ylideneindolin-2-one derivative” (priority 2001, published 2005).

In test [1] the test system is Human umbilical vein endothelial cells (HUVEC), VEGF-stimulated. The experiment in a line: Test on the inhibition of VEGF-stimulated HUVEC growth ([3H]thymidine incorporation). Conditions: human recombinant VEGF 10 ng/ml. The format is cell-based. The procedure: Test method: (Cell culture) Human umbilical vein endothelial cells (HUVEC) were cultured using EGM-2 complete medium (Clonetics) which had been supplemented with additives (2% FBS, 0.4% FGF (fibroblast growth factor), 0.1% VEGF, 0.1% IGF-I (insulin like growth factor-I), 0.1% EGF (epidermal growth factor), 0.1% ascorbic acid, 0.1% GA-1000, 0.1% heparin and 0.04% hydrocortisone).
(Evaluation of compounds) HUVEC (10,000 cells/well) were inoculated into EGM-2 complete medium in a gelatin-coated 96 well plate (mfd. by IWAKI) and cultured overnight. After washing with a physiological phosphate buffer, the medium was exchanged with a low serum medium (Medium 199/0.1% FBS) and the culturing was continued for 24 hours. Each of the compounds to be evaluated was prepared as a 10 mM DMSO solution and diluted with the low serum medium. This was added to each well to a final concentration of from 0.001 to 10 μM. After 2 hours of the compound treatment, human recombinant VEGF (R & D Systems) was added to a final concentration of 10 ng/ml. After 18 hours, [^3H]thymidine (Amersham Pharmacia) was added in 5 μCi/well portions. After 4 hours, the reaction was terminated by adding 0.2% SDS in 50 μl/well portions, and the product was recovered on GF/C Unifilter (Packard). After adding 25 μl of Microscinti 20 (Packard), the radioactivity incorporated into the DNA trapped on the filter was measured using TopCount (Packard). The IC50 of the inhibitory activity of each compound was calculated as the 50% inhibition concentration (IC50 value) of each compound to be tested, by defining the incorporated amount of [^3H]thymidine at the time of VEGF addition as 100%, and its incorporated amount at the time of no addition of VEGF as 0%.
In general terms: Uptake of a labelled nucleoside into DNA is a usual measure of proliferation.

For test [2] the test system is unchanged. The description is as above. Conditions: human recombinant VEGF 10 ng/ml. The format is cell-based. The source holds these as a separate data set.

Molecules are shown by their SMILES. pIC50: −log10 of the molar value.

The pIC50 is the negative decadic logarithm of the IC50, by convention in mol/L. Regarding `N#Cc1ccc2c(c1)NC(=O)C2=C1C=Cc2cc(OCCN3CCOCC3)ccc2N1` [Example 295], in test [1], the pIC50 is 7.48.

For `CC(=O)Oc1ccc2c(c1)NC(=O)C2=C1C=Cc2ccccc2N1` [Example 265], the pIC50 in test [1] was 6.74. For `O=C1Nc2ccccc2C1=C1C=Cc2c(cccc2OCCN2CCOCC2)N1` [Example 105], the pIC50 in test [1] is 6.66. As for `O=C1Nc2ccccc2C1=C1C=Cc2cc(OCCN3CCN(c4ncccn4)CC3)ccc2N1` [Example 82], the pIC50 in test [1] is 7.38. As for `CNC(=O)c1ccc2c(c1)C=CC(=C1C(=O)Nc3ccccc31)N2` [Example 149], the pIC50 in test [1] is 7.14. With `O=C1Nc2cc(F)c(F)cc2C1=C1C=Cc2cc(OCCN3CCOCC3)ccc2N1` [Example 341], in test [1], the pIC50 was 7.70. As for `O=C1Nc2ccccc2C1=C1C=Cc2ccc(OCCN3CCOCC3)cc2N1` [Example 102], the pIC50 in test [1] is 6.39. On the same count and under the same terms, to `CCOC(=O)c1cc2c(cc1Cl)C(=C1C=Cc3cc(OCCN4CCOCC4)ccc3N1)C(=O)N2` [Example 298] belongs 7.30. With `O=C1Nc2cnc(Cl)nc2/C1=C1\C=Cc2ccccc2N1` [Example 361], the pIC50 in test [2] was 7.62. Consider `O=C1Nc2ccccc2C1=C1C=Cc2cc(OCCN3CCS(=O)(=O)CC3)ccc2N1` [Example 80], for which, in test [1], the pIC50 was 7.00.

Turning to `CCOC(=O)c1cc2c(cc1C)C(=C1C=Cc3cc(OCCN4CCOCC4)ccc3N1)C(=O)N2` [Example 301], the pIC50 in test [1] is 8.12. For `N#Cc1ccc2c(c1)NC(=O)C2=C1C=Cc2ccccc2N1` [Example 191], the pIC50 in test [1] was 7.15. For the compound `O=C1Nc2ccccc2C1=C1C=Cc2cc(OCCn3ccnn3)ccc2N1` [Example 1, 3-{6-[2-(1H-1,2,3-triazol-1-yl)ethoxy]quinolin-2(1H)-ylidene}indolin-2-one], the negative-log IC50 (pIC50) in test [2] is 6.68. `CCOC(=O)CCC1=CC(=C2C(=O)Nc3ccccc32)Nc2ccccc21` [Example 39]: the pIC50 in test [1] was 7.49. For the compound `CCOC(=O)c1ccc2c(c1)NC(=O)C2=C1C=Cc2cc(OCCN3CCOCC3)ccc2N1` [Example 294], the pIC50 in test [1] was 7.92.

With `O=C(NCCN1CCOCC1)C1=CC(=C2C(=O)Nc3ccccc32)Nc2ccccc21` [Example 159], the pIC50 in test [1] was 7.42.

`O=C1Nc2ccc(Cl)cc2C1=C1C=Cc2ccccc2N1` [Example 283]: the pIC50 in test [1] was 7.08.

In the case of `CN1CCC(N(C)CCOc2ccc3c(c2)C=CC(=C2C(=O)Nc4ccccc42)N3)CC1` [Example 87], the pIC50 in test [1] was 7.00. As for `O=C1Nc2ccccc2C1=C1C=Cc2cc(OC(=O)c3ccccc3)ccc2N1` [Example 36], in test [1], the pIC50 is 6.80. For `O=C1Nc2ccccc2C1=C1C=Cc2cc(Br)ccc2N1` [Example 56], the negative logarithm of the IC50 (pIC50) in test [1] was 6.96. `O=C1Nc2ccccc2C1=C1C=Cc2cc(OCCCCN3CCOCC3)ccc2N1` [Example 47]: the pIC50 in test [1] was 6.77.

As for `O=C(NCCCN1CCOCC1)C1=CC(=C2C(=O)Nc3ccccc32)Nc2ccccc21` [Example 163], the pIC50 in test [1] was 7.37. Turning to `O=C1Nc2ccccc2C1=C1C=Cc2cc(CO)ccc2N1` [Example 14, 3-(6-hydroxymethylquinolin-2(1H)-ylidene)indolin-2-one], the pIC50 in test [2] is 6.52. With `CCOC(=O)c1ccc2c(c1)C(=C1C=Cc3ccccc3N1)C(=O)N2` [Example 239], in test [1], the pIC50 is 6.51. Regarding `CN1CCCN(CCOc2ccc3c(c2)C=CC(=C2C(=O)Nc4ccccc42)N3)CC1` [Example 83], the pIC50 in test [1] is 6.96.

Consider `O=C1Nc2cc(Cl)ccc2C1=C1C=Cc2cc(OCCN3CCOCC3)ccc2N1` [Example 312], for which, in test [1], the negative logarithm of the IC50 (pIC50) is 7.32.

Regarding `O=C1Nc2cc(C(=O)O)ccc2C1=C1C=Cc2ccccc2N1` [Example 25, 2-oxo-3-quinolin-2(1H)-ylideneindoline-6-carboxylic acid], in test [2], the pIC50 was 6.42.

Consider `CCOC(=O)c1cc2c(cc1F)C(=C1C=Cc3ccccc3N1)C(=O)N2` [Example 204], for which, in test [1], the pIC50 was 7.66.

With `CN(C)CCN(C)CCOc1ccc2c(c1)C=CC(=C1C(=O)Nc3ccccc31)N2` [Example 86], the pIC50 in test [1] was 7.00. Still for that read-out and setting: for `CN1CCN(CCCc2ccc3c(c2)C=CC(=C2C(=O)Nc4ccccc42)N3)CC1` [Example 98] the value was 6.82. For `O=C1Nc2ccccc2C1=C1C=Cc2cc(OCCN3CCCCC3=O)ccc2N1` [Example 59], in test [1], the pIC50 is 7.06. For the compound `CCOC(=O)c1cc2c(cc1F)C(=C1C=Cc3cc(OCCN4CCOCC4)ccc3N1)C(=O)N2` [Example 299], the pIC50 in test [1] was 7.57. `O=C1Nc2ccccc2C1=C1C=Cc2cc(OCCN3CCN(CCO)CC3)ccc2N1` [Example 85]: the pIC50 in test [1] is 6.96.

In the case of `CCN(CC)CCOc1ccc2c(c1)C(=C1C=Cc3ccccc3N1)C(=O)N2` [Example 286], in test [1], the pIC50 is 6.12. Consider `O=C(O)CCc1ccc2c(c1)C=CC(=C1C(=O)Nc3ccccc31)N2` [Example 66], for which the pIC50 in test [1] is 6.46. Same read-out and setting: for `COCCNCc1ccc2c(c1)C=CC(=C1C(=O)Nc3ccccc31)N2` [Example 112] the value was 7.00.

Turning to `O=C(Nc1cccnc1)Nc1ccc2c(c1)C=CC(=C1C(=O)Nc3ccccc31)N2` [Example 16, 1-[2-(2-oxoindolin-3-ylidene)-1,2-dihydroquinolin-6-yl]-3-(pyridin-3-yl)urea], the pIC50 in test [2] is 6.96.

As for `CC(=O)c1ccc2c(c1)NC(=O)C2=C1C=Cc2ccccc2N1` [Example 21, 6-acetyl-3-quinolin-2(1H)-ylideneindolin-2-one], the pIC50 in test [2] was 6.66. Still for that read-out and setting: for `Nc1ccc2c(c1)C=CC(=C1C(=O)Nc3ccccc31)N2` [Example 10, 3-[6-aminoquinolin-2(1H)-ylidene]indolin-2-one] the value was 6.00.

Take `O=C1Nc2ccccc2C1=C1C=Cc2cc(OCCNC3CCC(O)CC3)ccc2N1` (centres unmarked) [Example 57]: the pIC50 in test [1] was 6.14. For `O=C1Nc2ccc(Cl)cc2C1=C1C=Cc2cc(OCCN3CCOCC3)ccc2N1` [Example 293], in test [1], the pIC50 was 7.32. Still for that read-out and setting: for `CCOCc1ccc2c(c1)NC(=O)C2=C1C=Cc2ccccc2N1` [Example 259] the value was 7.15; for `CCOC(=O)c1cc2c(cc1C)C(=C1C=Cc3ccccc3N1)C(=O)N2` [Example 222], 8.17; for `CCOC(=O)C1CCN(CCOc2ccc3c(c2)C=CC(=C2C(=O)Nc4ccccc42)N3)CC1` [Example 79], 7.00. Take `O=C1Nc2ccccc2C1=C1C=Cc2cc(OCCN3CCC(n4c(=O)[nH]c5ccccc54)CC3)ccc2N1` [Example 81]: the pIC50 in test [1] was 7.17.

Take `O=C1Nc2ccccc2C1=C1C=Cc2cc(OCCCN3CCOCC3)ccc2N1` [Example 42]: the pIC50 in test [1] was 6.96. As for `O=Cc1ccc2c(c1)NC(=O)C2=C1C=Cc2ccccc2N1` [Example 193], the pIC50 in test [1] is 6.06. Same read-out and setting: to `CC1=CC(=C2C(=O)Nc3ccccc32)Nc2ccccc21` [Example 38] belongs 7.42; to `O=C1Nc2cc(Cl)ccc2C1=C1C=Cc2ccccc2N1` [Example 217], 7.96; to `COc1cc2c(cc1CCCN1CCOCC1)NC(=C1C(=O)Nc3ccccc31)C=C2` [Example 77], 6.80. Turning to `COCCOc1ccc2c(c1)C=CC(=C1C(=O)Nc3ccccc31)N2` [Example 58], the pIC50 in test [1] was 7.47. The same measure, in the same setting: for `CCOC(=O)c1ccc2c(c1)NC(=O)C2=C1C=Cc2ccccc2N1` [Example 17, ethyl 3-[quinolin-2(1H)-ylidene]indolin-2-one-carboxylate] the value was 7.92; for `O=C1Nc2ccccc2C1=C1C=C(CO)c2ccccc2N1` [Example 187], 6.85.

With `O=C(CCc1ccc2c(c1)C=CC(=C1C(=O)Nc3ccccc31)N2)NOCC1CC1` [Example 144], in test [1], the pIC50 is 7.03.

Take `CCOC(=O)CNC(=O)c1ccc2c(c1)C=CC(=C1C(=O)Nc3ccccc31)N2` [Example 146]: the pIC50 in test [1] is 7.12. As for `Cc1ccc2c(c1)C(=C1C=Cc3ccccc3N1)C(=O)N2` [Example 201], in test [1], the pIC50 was 6.54.

Turning to `O=C1Nc2cc(C(F)(F)F)ccc2C1=C1C=Cc2ccccc2N1` [Example 203], the pIC50 in test [1] was 8.32. Turning to `O=C1Nc2ccc([N+](=O)[O-])cc2C1=C1C=Cc2ccccc2N1` [Example 284], in test [1], the pIC50 was 6.44. Consider `O=C1Nc2ccccc2C1=C1C=Cc2cc(C(=O)NCCN3CCOCC3)ccc2N1` [Example 145], for which, in test [1], the pIC50 is 7.51. Turning to `O=C1Nc2cc(F)ccc2C1=C1C=Cc2ccccc2N1` [Example 209], in test [1], the pIC50 was 7.74. `CCN(CC)CCNC(=O)C1=CC(=C2C(=O)Nc3ccccc32)Nc2ccccc21` [Example 160]: the pIC50 in test [1] is 7.34. On to `COc1ccc2c(c1)C=CC(=C1C(=O)Nc3ccccc31)N2` [Example 37], for which the pIC50 in test [1] was 6.51. `O=C1Nc2ccc(F)cc2C1=C1C=Cc2ccccc2N1` [Example 213]: the pIC50 in test [1] was 9.01. As to `O=C1Nc2cc(C(F)(F)F)ccc2C1=C1C=Cc2cc(OCCN3CCOCC3)ccc2N1` [Example 296], in test [1], the pIC50 is 7.33.

Take `O=C1Nc2ccc(Br)cc2C1=C1C=Cc2ccccc2N1` [Example 285]: in test [1], the pIC50 was 7.15.
